Laboratory results published in the NIST ThermoML archive (doi:10.1021/je800150h).

Assay: mn = molality of the nth substance listed, in mol/kg
Details: 101 kPa, Liquid; for electrical conductivity: CyberScan CON500 conductivity meter

[Cl-].[Li+] [lithium chloride] + O
Details | electrical conductivity [S/m] | mass density [kg/m3] | viscosity [mPa·s]
268.1 K, m1 = 0.5 | – | 1013.4 | 2.273
268.1 K, m1 = 1 | – | 1024.4 | 2.554
268.1 K, m1 = 2 | – | 1047.1 | 2.831
268.1 K, m1 = 3 | – | 1067.8 | 3.191
268.1 K, m1 = 4.5 | – | 1095.9 | 3.649
268.1 K, m1 = 6 | – | 1121.7 | 4.461
268.1 K, m1 = 8 | – | 1155.4 | 6.735
268.1 K, m1 = 11 | – | 1200.2 | 10.85
268.1 K, m1 = 14 | – | 1240.7 | 18.98
268.1 K, m1 = 17.8 | – | 1288.4 | 28.66
273.1 K, m1 = 0.5 | – | 1013.2 | 1.944
273.1 K, m1 = 1 | – | 1024.4 | 2.107
273.1 K, m1 = 2 | – | 1046.9 | 2.37
273.1 K, m1 = 3 | – | 1067.4 | 2.681
273.1 K, m1 = 4.5 | – | 1095 | 3.133
273.1 K, m1 = 6 | – | 1121.2 | 3.815
273.1 K, m1 = 8 | – | 1153.7 | 5.744
273.1 K, m1 = 11 | – | 1198.7 | 9.191
273.1 K, m1 = 14 | – | 1239.1 | 15.82
273.1 K, m1 = 17.8 | – | 1286.4 | 24.99
278.1 K, m1 = 0.5 | 2.61 | – | 1.663
278.1 K, m1 = 1 | 4.64 | 1024 | 1.784
278.1 K, m1 = 2 | 7.64 | 1046.3 | 2
278.1 K, m1 = 3 | 9.59 | 1066.4 | 2.266
278.1 K, m1 = 4.5 | 11.5 | 1094.1 | 2.69
278.1 K, m1 = 6 | 12 | 1119.8 | 3.258
278.1 K, m1 = 8 | 11.5 | 1152.6 | 4.899
278.1 K, m1 = 11 | 9.37 | 1197.1 | 7.784
278.1 K, m1 = 14 | 6.99 | 1237.4 | 13.17
278.1 K, m1 = 17.8 | 4.71 | 1284.2 | 21.79
283.1 K, m1 = 0.5 | 2.99 | 1012.5 | 1.424
283.1 K, m1 = 1 | 5.2 | 1023.3 | 1.518
283.1 K, m1 = 2 | 8.61 | 1045.3 | 1.701
283.1 K, m1 = 3 | 11 | 1065.4 | 1.936
283.1 K, m1 = 4.5 | 13 | 1092.8 | 2.303
283.1 K, m1 = 6 | 13.6 | 1118.8 | 2.777
283.1 K, m1 = 8 | 13.1 | 1151.4 | 4.17
283.1 K, m1 = 11 | 10.7 | 1195.6 | 6.579
283.1 K, m1 = 14 | 8.01 | 1235.8 | 10.97
283.1 K, m1 = 17.8 | 5.52 | 1282.2 | 19.66
288.15 K, m1 = 0.5 | 3.35 | 1011.6 | 1.243
288.15 K, m1 = 1 | 5.87 | 1022.2 | 1.346
288.15 K, m1 = 2 | 9.62 | 1044.1 | 1.502
288.15 K, m1 = 3 | 12.3 | 1064.3 | 1.729
288.15 K, m1 = 4.5 | 14.5 | 1091.5 | 2.034
288.15 K, m1 = 6 | 15.2 | 1117.4 | 2.452
288.15 K, m1 = 8 | 14.6 | 1149.8 | 3.602
288.15 K, m1 = 11 | 12.1 | 1194 | 5.63
288.15 K, m1 = 14 | 9.09 | 1234.1 | 9.142
288.15 K, m1 = 17.8 | 6.45 | 1280.2 | 17.14
293.15 K, m1 = 0.5 | 3.74 | 1010.8 | 1.087
293.15 K, m1 = 1 | 6.53 | 1021.4 | 1.16
293.15 K, m1 = 2 | 10.7 | 1043 | 1.308
293.15 K, m1 = 3 | 13.7 | 1063.1 | 1.495
293.15 K, m1 = 4.5 | 16.1 | 1090.5 | 1.777
293.15 K, m1 = 6 | 16.9 | 1116.1 | 2.131
293.15 K, m1 = 8 | 16.3 | 1148.5 | 3.199
293.15 K, m1 = 11 | 13.6 | 1192.5 | 4.898
293.15 K, m1 = 14 | 10.4 | 1232.6 | 7.966
293.15 K, m1 = 17.8 | 7.44 | 1278.3 | 14.89
298.15 K, m1 = 0.5 | 4.15 | 1009.4 | 0.97
298.15 K, m1 = 1 | 7.29 | – | 1.052
298.15 K, m1 = 2 | 12 | 1041.8 | 1.165
298.15 K, m1 = 3 | 15.2 | 1061.8 | 1.339
298.15 K, m1 = 4.5 | 17.7 | 1089.1 | 1.586
298.15 K, m1 = 6 | 18.7 | 1114.6 | 1.906
298.15 K, m1 = 8 | 17.9 | 1147 | 2.8
298.15 K, m1 = 11 | 15.1 | 1190.9 | 4.292
298.15 K, m1 = 14 | 11.7 | 1230.7 | 6.899
298.15 K, m1 = 17.8 | 8.5 | 1276.4 | 12.68
303.15 K, m1 = 0.5 | 4.58 | 1008.1 | 0.866
303.15 K, m1 = 1 | 8 | 1018.7 | 0.929
303.15 K, m1 = 2 | 13.2 | – | 1.047
303.15 K, m1 = 3 | 16.7 | 1060.3 | 1.239
303.15 K, m1 = 4.5 | 19.4 | 1087.7 | 1.422
303.15 K, m1 = 6 | – | 1113.1 | 1.713
303.15 K, m1 = 8 | 19.7 | 1145.4 | 2.486
303.15 K, m1 = 11 | 16.7 | 1189.3 | 3.812
303.15 K, m1 = 14 | 13.1 | 1228.9 | 6.073
303.15 K, m1 = 17.8 | 9.61 | 1274.6 | 11.54
308.15 K, m1 = 0.5 | 4.99 | 1006.6 | 0.782
308.15 K, m1 = 1 | 8.7 | – | 0.834
308.15 K, m1 = 2 | 14.4 | 1038.7 | 0.941
308.15 K, m1 = 3 | 18.2 | 1058.7 | 1.083
308.15 K, m1 = 4.5 | – | 1085.9 | 1.28
308.15 K, m1 = 6 | – | 1111.5 | 1.532
308.15 K, m1 = 8 | – | 1143.9 | 2.256
308.15 K, m1 = 11 | 18.3 | 1187.8 | 3.407
308.15 K, m1 = 14 | 14.5 | 1227.1 | 5.332
308.15 K, m1 = 17.8 | 10.9 | 1272.8 | 10.46
313.15 K, m1 = 0.5 | 5.43 | 1005.1 | 0.722
313.15 K, m1 = 1 | 9.45 | 1015.8 | 0.774
313.15 K, m1 = 2 | 15.6 | – | 0.866
313.15 K, m1 = 3 | 19.7 | 1056.9 | 0.977
313.15 K, m1 = 4.5 | – | 1084.4 | 1.177
313.15 K, m1 = 6 | – | 1110.1 | 1.406
313.15 K, m1 = 8 | – | 1142.3 | 2.071
313.15 K, m1 = 11 | 20 | 1186.1 | 3.091
313.15 K, m1 = 14 | 16 | 1225.3 | 4.812
313.15 K, m1 = 17.8 | 12.3 | 1270.7 | 9.741
318.15 K, m1 = 0.5 | 5.85 | 1003.5 | 0.668
318.15 K, m1 = 1 | 10.2 | – | 0.714
318.15 K, m1 = 2 | 16.8 | 1035.2 | 0.802
318.15 K, m1 = 3 | – | 1055.5 | 0.91
318.15 K, m1 = 4.5 | – | 1083 | 1.076
318.15 K, m1 = 6 | – | 1108.4 | 1.293
318.15 K, m1 = 8 | – | 1140.7 | 1.919
318.15 K, m1 = 11 | – | 1184.3 | 2.869
318.15 K, m1 = 14 | 17.5 | 1223.5 | 4.412
318.15 K, m1 = 17.8 | 13.6 | 1268.9 | 8.984
323.15 K, m1 = 0.5 | 6.28 | 1002.2 | 0.625
323.15 K, m1 = 1 | 11 | 1012.5 | 0.665
323.15 K, m1 = 2 | 18.1 | 1033.8 | 0.747
323.15 K, m1 = 3 | – | – | 0.859
323.15 K, m1 = 4.5 | – | 1081.1 | 1.003
323.15 K, m1 = 6 | – | 1106.4 | 1.194
323.15 K, m1 = 8 | – | 1138.8 | 1.742
323.15 K, m1 = 11 | – | 1182.6 | 2.69
323.15 K, m1 = 14 | 19.1 | 1221.8 | 4.123
323.15 K, m1 = 17.8 | 15.1 | 1266.9 | 8.265
